Results taken from publication PMC9851200, “Multiparameter phenotypic screening for endogenous TFEB and TFE3 translocation identifies novel chemical series modulating lysosome function” (Autophagy, 2022).

Experiments:
Type in all cases: binding
[1] = biological target: kinases (KINOMEscan panel) (Homo sapiens, UniProt P07949, V804L); conditions: NEW KINOMEscan
[2] = biological target: kinases (KINOMEscan panel) (Homo sapiens, UniProt P36888, R834Q); conditions: kinase FLT3(R834Q); NEW KINOMEscan
[3] = biological target: T1, kinases (KINOMEscan panel) (Homo sapiens, UniProt P41743); conditions: PRKCI; NEW KINOMEscan
T1 sequence (P41743 1-596): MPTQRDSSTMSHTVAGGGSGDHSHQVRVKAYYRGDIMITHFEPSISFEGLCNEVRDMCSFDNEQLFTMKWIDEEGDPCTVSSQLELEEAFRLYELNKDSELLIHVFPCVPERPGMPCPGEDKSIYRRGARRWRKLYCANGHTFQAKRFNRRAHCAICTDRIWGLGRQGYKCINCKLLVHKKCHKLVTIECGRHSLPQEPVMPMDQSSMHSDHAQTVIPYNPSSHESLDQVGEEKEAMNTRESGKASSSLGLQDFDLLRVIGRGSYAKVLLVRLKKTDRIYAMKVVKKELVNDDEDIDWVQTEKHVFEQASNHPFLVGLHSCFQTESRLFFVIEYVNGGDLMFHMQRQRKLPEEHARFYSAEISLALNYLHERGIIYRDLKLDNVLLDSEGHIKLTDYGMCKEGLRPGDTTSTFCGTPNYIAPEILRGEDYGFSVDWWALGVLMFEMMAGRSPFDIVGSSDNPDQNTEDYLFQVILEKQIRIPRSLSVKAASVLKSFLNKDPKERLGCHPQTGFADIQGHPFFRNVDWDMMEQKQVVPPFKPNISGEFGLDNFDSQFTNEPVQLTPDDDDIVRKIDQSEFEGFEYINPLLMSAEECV

[4] = biological target: kinases (KINOMEscan panel) (Homo sapiens, UniProt P42336, H1047L); conditions: NEW KINOMEscan
Chain of kinases (KINOMEscan panel) (Homo sapiens, UniProt P42336, H1047L) (P42336 whole entry H1047L): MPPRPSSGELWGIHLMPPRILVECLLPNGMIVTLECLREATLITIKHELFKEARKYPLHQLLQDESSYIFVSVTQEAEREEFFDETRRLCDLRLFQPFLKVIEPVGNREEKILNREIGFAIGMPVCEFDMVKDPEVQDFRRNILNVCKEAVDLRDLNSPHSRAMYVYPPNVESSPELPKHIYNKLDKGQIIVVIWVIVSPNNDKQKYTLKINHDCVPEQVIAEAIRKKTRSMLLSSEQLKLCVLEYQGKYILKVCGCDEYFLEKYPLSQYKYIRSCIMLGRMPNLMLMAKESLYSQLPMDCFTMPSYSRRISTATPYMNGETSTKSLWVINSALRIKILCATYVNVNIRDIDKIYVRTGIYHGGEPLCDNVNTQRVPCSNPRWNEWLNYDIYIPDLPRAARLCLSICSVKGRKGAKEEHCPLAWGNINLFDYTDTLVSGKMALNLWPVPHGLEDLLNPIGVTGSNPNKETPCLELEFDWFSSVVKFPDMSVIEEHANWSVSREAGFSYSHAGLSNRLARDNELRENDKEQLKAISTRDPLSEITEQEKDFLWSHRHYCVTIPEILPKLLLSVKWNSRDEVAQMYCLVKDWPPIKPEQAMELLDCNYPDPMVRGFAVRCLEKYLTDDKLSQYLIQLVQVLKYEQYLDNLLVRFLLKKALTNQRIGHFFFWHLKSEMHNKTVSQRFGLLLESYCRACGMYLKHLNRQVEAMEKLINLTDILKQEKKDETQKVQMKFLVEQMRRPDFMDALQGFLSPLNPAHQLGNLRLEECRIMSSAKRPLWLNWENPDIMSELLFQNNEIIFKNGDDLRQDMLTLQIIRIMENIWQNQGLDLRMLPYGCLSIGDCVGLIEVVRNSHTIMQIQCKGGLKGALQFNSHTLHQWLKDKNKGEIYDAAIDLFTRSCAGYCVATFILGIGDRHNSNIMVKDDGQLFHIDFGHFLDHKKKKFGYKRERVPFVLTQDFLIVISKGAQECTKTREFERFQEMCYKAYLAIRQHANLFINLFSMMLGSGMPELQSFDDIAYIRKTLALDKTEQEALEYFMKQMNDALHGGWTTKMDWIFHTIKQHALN

[5] = biological target: kinases (KINOMEscan panel) (Homo sapiens, UniProt Q08345); conditions: DDR1; NEW KINOMEscan
Chain of kinases (KINOMEscan panel) (Homo sapiens, UniProt Q08345) (Q08345 19-913): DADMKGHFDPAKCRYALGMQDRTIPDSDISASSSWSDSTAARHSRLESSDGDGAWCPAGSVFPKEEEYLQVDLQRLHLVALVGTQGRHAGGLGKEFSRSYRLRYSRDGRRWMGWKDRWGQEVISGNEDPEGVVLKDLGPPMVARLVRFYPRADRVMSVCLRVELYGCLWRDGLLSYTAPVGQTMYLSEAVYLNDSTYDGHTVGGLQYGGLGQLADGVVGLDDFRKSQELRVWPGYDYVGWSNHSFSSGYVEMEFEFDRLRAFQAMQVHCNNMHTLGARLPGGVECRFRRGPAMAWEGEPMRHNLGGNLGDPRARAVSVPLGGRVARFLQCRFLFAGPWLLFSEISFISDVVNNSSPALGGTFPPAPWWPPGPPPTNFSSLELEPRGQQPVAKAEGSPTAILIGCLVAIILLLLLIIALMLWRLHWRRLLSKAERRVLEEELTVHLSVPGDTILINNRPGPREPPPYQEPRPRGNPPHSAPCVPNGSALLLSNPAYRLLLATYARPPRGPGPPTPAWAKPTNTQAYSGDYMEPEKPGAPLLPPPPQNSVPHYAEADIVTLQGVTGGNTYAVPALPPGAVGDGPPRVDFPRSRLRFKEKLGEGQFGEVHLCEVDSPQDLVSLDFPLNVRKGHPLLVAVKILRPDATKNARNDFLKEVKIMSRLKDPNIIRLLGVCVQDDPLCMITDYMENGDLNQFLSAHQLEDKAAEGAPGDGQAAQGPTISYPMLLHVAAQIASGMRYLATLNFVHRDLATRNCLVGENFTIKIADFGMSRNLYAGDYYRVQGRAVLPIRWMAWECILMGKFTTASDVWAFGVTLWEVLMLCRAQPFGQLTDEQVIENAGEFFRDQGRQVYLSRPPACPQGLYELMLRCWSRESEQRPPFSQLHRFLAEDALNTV

[6] = biological target: T2, kinases (KINOMEscan panel) (Homo sapiens, UniProt Q56UN5); conditions: NEW KINOMEscan
T2 sequence (Q56UN5 1-1328): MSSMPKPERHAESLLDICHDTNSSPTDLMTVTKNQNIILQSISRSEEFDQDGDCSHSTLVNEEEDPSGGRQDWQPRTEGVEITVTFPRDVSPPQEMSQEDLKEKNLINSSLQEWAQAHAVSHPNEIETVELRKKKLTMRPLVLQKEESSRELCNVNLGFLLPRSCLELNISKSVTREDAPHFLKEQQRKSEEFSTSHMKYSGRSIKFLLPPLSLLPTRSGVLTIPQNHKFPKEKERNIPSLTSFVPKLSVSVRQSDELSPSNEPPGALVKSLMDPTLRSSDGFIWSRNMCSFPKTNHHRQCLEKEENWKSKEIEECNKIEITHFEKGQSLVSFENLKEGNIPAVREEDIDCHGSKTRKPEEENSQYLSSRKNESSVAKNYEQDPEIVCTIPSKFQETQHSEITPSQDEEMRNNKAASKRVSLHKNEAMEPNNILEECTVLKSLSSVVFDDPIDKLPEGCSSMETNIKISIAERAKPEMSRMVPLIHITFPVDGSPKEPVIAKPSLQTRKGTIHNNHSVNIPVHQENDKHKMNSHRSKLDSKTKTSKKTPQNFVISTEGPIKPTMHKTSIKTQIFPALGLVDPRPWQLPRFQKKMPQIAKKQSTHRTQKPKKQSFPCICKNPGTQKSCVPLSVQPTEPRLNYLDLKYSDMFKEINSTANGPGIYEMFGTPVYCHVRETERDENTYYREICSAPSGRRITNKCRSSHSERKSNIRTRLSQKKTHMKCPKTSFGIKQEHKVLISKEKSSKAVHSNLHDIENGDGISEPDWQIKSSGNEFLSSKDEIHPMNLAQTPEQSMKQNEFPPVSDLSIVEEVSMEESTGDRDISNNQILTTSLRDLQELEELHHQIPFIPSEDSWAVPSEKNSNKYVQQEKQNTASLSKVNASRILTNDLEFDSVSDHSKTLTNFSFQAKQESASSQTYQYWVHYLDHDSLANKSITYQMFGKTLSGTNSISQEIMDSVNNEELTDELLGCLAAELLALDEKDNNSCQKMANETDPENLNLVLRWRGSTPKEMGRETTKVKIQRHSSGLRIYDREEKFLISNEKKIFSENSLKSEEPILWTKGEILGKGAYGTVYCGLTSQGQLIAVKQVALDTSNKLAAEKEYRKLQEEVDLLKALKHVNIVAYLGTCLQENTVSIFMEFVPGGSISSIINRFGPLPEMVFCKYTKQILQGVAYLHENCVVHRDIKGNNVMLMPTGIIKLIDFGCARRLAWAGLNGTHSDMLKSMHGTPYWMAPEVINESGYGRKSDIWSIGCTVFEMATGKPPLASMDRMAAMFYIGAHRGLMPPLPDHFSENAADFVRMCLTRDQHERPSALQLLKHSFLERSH

Chain of kinases (KINOMEscan panel) (Homo sapiens, UniProt P07949, V804L) (P07949 29-1114 V804L): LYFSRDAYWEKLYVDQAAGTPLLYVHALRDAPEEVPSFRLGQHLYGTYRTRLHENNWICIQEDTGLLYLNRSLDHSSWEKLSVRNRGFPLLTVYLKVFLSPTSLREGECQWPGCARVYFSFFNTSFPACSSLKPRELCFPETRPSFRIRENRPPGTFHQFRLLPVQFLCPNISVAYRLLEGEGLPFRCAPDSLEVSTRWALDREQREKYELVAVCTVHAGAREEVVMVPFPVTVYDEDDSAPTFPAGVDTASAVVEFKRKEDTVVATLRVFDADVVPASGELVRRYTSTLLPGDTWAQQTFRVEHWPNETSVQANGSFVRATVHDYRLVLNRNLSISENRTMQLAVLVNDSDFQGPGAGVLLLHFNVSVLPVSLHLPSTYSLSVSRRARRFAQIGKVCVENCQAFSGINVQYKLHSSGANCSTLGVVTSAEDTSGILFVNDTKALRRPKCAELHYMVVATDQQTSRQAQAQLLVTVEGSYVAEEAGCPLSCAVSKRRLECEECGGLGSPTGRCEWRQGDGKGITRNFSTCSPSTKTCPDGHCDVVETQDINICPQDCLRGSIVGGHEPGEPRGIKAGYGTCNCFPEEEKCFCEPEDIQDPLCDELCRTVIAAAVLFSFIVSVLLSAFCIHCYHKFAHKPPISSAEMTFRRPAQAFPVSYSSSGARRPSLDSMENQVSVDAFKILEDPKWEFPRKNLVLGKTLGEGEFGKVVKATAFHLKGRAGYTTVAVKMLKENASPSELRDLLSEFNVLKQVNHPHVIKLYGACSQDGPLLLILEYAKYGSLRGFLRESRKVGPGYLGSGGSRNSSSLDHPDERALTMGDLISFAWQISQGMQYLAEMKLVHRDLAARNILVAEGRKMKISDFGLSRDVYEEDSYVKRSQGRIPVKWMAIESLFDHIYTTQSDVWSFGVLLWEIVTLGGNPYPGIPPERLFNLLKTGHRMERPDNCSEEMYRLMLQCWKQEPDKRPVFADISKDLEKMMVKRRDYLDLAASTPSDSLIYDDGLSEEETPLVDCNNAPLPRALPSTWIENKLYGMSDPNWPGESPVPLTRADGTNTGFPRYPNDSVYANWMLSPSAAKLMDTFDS

Cc1cccc(-c2nc(Nc3ccc4nn(C)cc4c3)c3ccccc3n2)n1 [NK167]
KINOMEscan RET(V804L) [1]: 0
KINOMEscan FLT3(R834Q) [2]: 0
KINOMEscan PRKCI [3]: 0
KINOMEscan PIK3CA(H1047L) [4]: 4
KINOMEscan DDR1 [5]: 0
KINOMEscan MAP3K19 [6]: 0

Cc1cccc(-c2nc(N(C)c3ccc4ncsc4c3)c3ccccc3n2)n1 [NK-161]
KINOMEscan RET(V804L) [1]: 15
KINOMEscan FLT3(R834Q) [2]: 2
KINOMEscan PRKCI [3]: 0
KINOMEscan PIK3CA(H1047L) [4]: 23
KINOMEscan DDR1 [5]: 0
KINOMEscan MAP3K19 [6]: 0
